Species on record: Rattus norvegicus
Assay: Open TG-GATES - Regimen: Daily Repeat
Format: toxicity, organism-based, Sprague-Dawley
Set-up: regimen Daily Repeat, gender Male, age 6 weeks
Conditions: in vivo, po, 250 mg/kg, route gavage, dose level Middle; for APTT / Bas / Eos / Fbg / Hb / Ht / Lym / MCH / MCHC / MCV / Mono / Neu / PT / Plat / RBC / Ret / WBC: tissue Blood; for KIDNEY_L / KIDNEY_R / KIDNEY_TOTAL: tissue Kidney; for LIVER: tissue Liver; for A/G / ALP / ALT / AST / BUN / CRE / Ca / Cl / DBIL / GLC / IP / K / LDH / Na / PL / RALB / TBIL / TC / TG / TP / gamma-GTP: tissue Plasma

In the case of `CN(C/C=C/C#CC(C)(C)C)Cc1cccc2ccccc12` [TERBINAFINE], the TERMINAL_BW (72 h, time 3 day) is reported as 237.2 g, the APTT (72 h, time 3 day) is reported as 17.7 s and the Bas (72 h, time 3 day) is reported as 1%. For the same compound, the Eos (72 h, time 3 day) was 1%, the Fbg (72 h, time 3 day) was 223.6 mg/dL and the Hb (72 h, time 3 day) was 13.6 g/dL. The Ht (72 h, time 3 day) was 40.4%, the Lym (72 h, time 3 day) was 77.2% and the MCH (72 h, time 3 day) was 21.7 pg. For the same compound, the MCHC (72 h, time 3 day) was 33.7%, the MCV (72 h, time 3 day) was 64.4 fL and the Mono (72 h, time 3 day) was 3.4%. The Neu (72 h, time 3 day) was 18%, the PT (72 h, time 3 day) was 11.6 s and the Plat (72 h, time 3 day) was 122 x10_4/uL. The RBC (72 h, time 3 day) was 628.6 x10_4/ul, the Ret (72 h, time 3 day) was 5.9% and the WBC (72 h, time 3 day) was 115.2 x10_2/uL. The KIDNEY_L (72 h, time 3 day) was 1.1 g, the KIDNEY_R (72 h, time 3 day) was 1.1 g and the KIDNEY_TOTAL (72 h, time 3 day) was 2.2 g. The LIVER (72 h, time 3 day) was 12.2 g, the A/G (72 h, time 3 day) was 1.7 and the ALP (72 h, time 3 day) was 954.4 IU/L. The ALT (72 h, time 3 day) was 39.8 IU/L, the AST (72 h, time 3 day) was 71.4 IU/L and the BUN (72 h, time 3 day) was 14.8 mg/dL. For the same compound, the CRE (72 h, time 3 day) was 0.4 mg/dL, the Ca (72 h, time 3 day) was 10.5 mg/dL and the Cl (72 h, time 3 day) was 103 meq/L. It also gave a DBIL (72 h, time 3 day) of 0.078 mg/dL, a GLC (72 h, time 3 day) of 189 mg/dL and an IP (72 h, time 3 day) of 7.5 mg/dL. The K (72 h, time 3 day) was 4 meq/L, the LDH (72 h, time 3 day) was 197 IU/L and the Na (72 h, time 3 day) was 141.4 meq/L. It also gave a PL (72 h, time 3 day) of 141.2 mg/dL, an RALB (72 h, time 3 day) of 3.5 g/dL and a TBIL (72 h, time 3 day) of 0.1 mg/dL. For the same compound, the TC (72 h, time 3 day) was 78.6 mg/dL, the TG (72 h, time 3 day) was 65.6 mg/dL and the TP (72 h, time 3 day) was 5.5 g/dL. The gamma-GTP (72 h, time 3 day) was 1.4 IU/L, the TERMINAL_BW ([…], time 7 day) was 268.6 g and the TERMINAL_BW ([…], time 14 day) was 323.9 g. It also gave a TERMINAL_BW ([…], time 28 day) of 411.4 g, an APTT ([…], time 7 day) of 21.6 s and a Bas ([…], time 7 day) of 1%. It also gave an Eos ([…], time 7 day) of 0.6%, a Fbg ([…], time 7 day) of 206 mg/dL and a Hb ([…], time 7 day) of 13.7 g/dL. It also gave a Ht ([…], time 7 day) of 39.7%, a Lym ([…], time 7 day) of 81.6% and an MCH ([…], time 7 day) of 20.8 pg. It also gave an MCHC ([…], time 7 day) of 34.6%, an MCV ([…], time 7 day) of 60.2 fL and a Mono ([…], time 7 day) of 2.4%. For the same compound, the Neu ([…], time 7 day) was 13.8%, the PT ([…], time 7 day) was 12.2 s and the Plat ([…], time 7 day) was 134.5 x10_4/uL. The RBC ([…], time 7 day) was 660 x10_4/ul, the Ret ([…], time 7 day) was 4.1% and the WBC ([…], time 7 day) was 128 x10_2/uL. The APTT ([…], time 14 day) was 19.5 s, the Bas ([…], time 14 day) was 1% and the Eos ([…], time 14 day) was 1%. For the same compound, the Fbg ([…], time 14 day) was 219.6 mg/dL, the Hb ([…], time 14 day) was 14.1 g/dL and the Ht ([…], time 14 day) was 41.7%. The Lym ([…], time 14 day) was 82.4%, the MCH ([…], time 14 day) was 19.9 pg and the MCHC ([…], time 14 day) was 33.8%. It also gave an MCV ([…], time 14 day) of 58.8 fL, a Mono ([…], time 14 day) of 2.8% and a Neu ([…], time 14 day) of 13%. It also gave a PT ([…], time 14 day) of 11.6 s, a Plat ([…], time 14 day) of 124.9 x10_4/uL and an RBC ([…], time 14 day) of 710 x10_4/ul. It also gave a Ret ([…], time 14 day) of 4.3%, a WBC ([…], time 14 day) of 135.6 x10_2/uL and an APTT ([…], time 28 day) of 22 s. For the same compound, the Bas ([…], time 28 day) was 1%, the Eos ([…], time 28 day) was 1.2% and the Fbg ([…], time 28 day) was 223.8 mg/dL. For the same compound, the Hb ([…], time 28 day) was 14.5 g/dL, the Ht ([…], time 28 day) was 41.4% and the Lym ([…], time 28 day) was 81%. It also gave an MCH ([…], time 28 day) of 20 pg, an MCHC ([…], time 28 day) of 35% and an MCV ([…], time 28 day) of 57.1 fL. For the same compound, the Mono ([…], time 28 day) was 2.2%, the Neu ([…], time 28 day) was 14.8% and the PT ([…], time 28 day) was 12.2 s. It also gave a Plat ([…], time 28 day) of 121.1 x10_4/uL, an RBC ([…], time 28 day) of 725.4 x10_4/ul and a Ret ([…], time 28 day) of 3.1%. For the same compound, the WBC ([…], time 28 day) was 136.2 x10_2/uL, the KIDNEY_L ([…], time 7 day) was 1.3 g and the KIDNEY_R ([…], time 7 day) was 1.2 g. The KIDNEY_TOTAL ([…], time 7 day) was 2.5 g, the KIDNEY_L ([…], time 14 day) was 1.4 g and the KIDNEY_R ([…], time 14 day) was 1.4 g. For the same compound, the KIDNEY_TOTAL ([…], time 14 day) was 2.8 g, the KIDNEY_L ([…], time 28 day) was 1.7 g and the KIDNEY_R ([…], time 28 day) was 1.7 g. For the same compound, the KIDNEY_TOTAL ([…], time 28 day) was 3.4 g, the LIVER ([…], time 7 day) was 13.7 g and the LIVER ([…], time 14 day) was 16.3 g. For the same compound, the LIVER ([…], time 28 day) was 20.2 g, the A/G ([…], time 7 day) was 1.6 and the ALP ([…], time 7 day) was 738.6 IU/L. It also gave an ALT ([…], time 7 day) of 37.6 IU/L, an AST ([…], time 7 day) of 70.4 IU/L and a BUN ([…], time 7 day) of 13.6 mg/dL. The CRE ([…], time 7 day) was 0.4 mg/dL, the Ca ([…], time 7 day) was 10.4 mg/dL and the Cl ([…], time 7 day) was 103.6 meq/L. For the same compound, the DBIL ([…], time 7 day) was 0.07 mg/dL, the GLC ([…], time 7 day) was 192 mg/dL and the IP ([…], time 7 day) was 7.4 mg/dL. It also gave a K ([…], time 7 day) of 4 meq/L, an LDH ([…], time 7 day) of 188.8 IU/L and a Na ([…], time 7 day) of 142.6 meq/L. It also gave a PL ([…], time 7 day) of 123.6 mg/dL, an RALB ([…], time 7 day) of 3.6 g/dL and a TBIL ([…], time 7 day) of 0.1 mg/dL. For the same compound, the TC ([…], time 7 day) was 65.2 mg/dL, the TG ([…], time 7 day) was 53.8 mg/dL and the TP ([…], time 7 day) was 5.8 g/dL. The gamma-GTP ([…], time 7 day) was 1 IU/L, the A/G ([…], time 14 day) was 1.5 and the ALP ([…], time 14 day) was 690 IU/L. For the same compound, the ALT ([…], time 14 day) was 34 IU/L, the AST ([…], time 14 day) was 62.8 IU/L and the BUN ([…], time 14 day) was 14.2 mg/dL. For the same compound, the CRE ([…], time 14 day) was 0.4 mg/dL, the Ca ([…], time 14 day) was 10.6 mg/dL and the Cl ([…], time 14 day) was 103.6 meq/L. The DBIL ([…], time 14 day) was 0.088 mg/dL, the GLC ([…], time 14 day) was 196.4 mg/dL and the IP ([…], time 14 day) was 8 mg/dL. It also gave a K ([…], time 14 day) of 3.8 meq/L, an LDH ([…], time 14 day) of 155.2 IU/L and a Na ([…], time 14 day) of 142.2 meq/L. It also gave a PL ([…], time 14 day) of 128 mg/dL, an RALB ([…], time 14 day) of 3.6 g/dL and a TBIL ([…], time 14 day) of 0.1 mg/dL. It also gave a TC ([…], time 14 day) of 68 mg/dL, a TG ([…], time 14 day) of 79.8 mg/dL and a TP ([…], time 14 day) of 5.9 g/dL. It also gave a gamma-GTP ([…], time 14 day) of 1 IU/L, an A/G ([…], time 28 day) of 1.3 and an ALP ([…], time 28 day) of 565.8 IU/L. The ALT ([…], time 28 day) was 34 IU/L, the AST ([…], time 28 day) was 61.2 IU/L and the BUN ([…], time 28 day) was 18.2 mg/dL. It also gave a CRE ([…], time 28 day) of 0.5 mg/dL, a Ca ([…], time 28 day) of 10.4 mg/dL and a Cl ([…], time 28 day) of 103.6 meq/L. The DBIL ([…], time 28 day) was 0.088 mg/dL, the GLC ([…], time 28 day) was 229.6 mg/dL and the IP ([…], time 28 day) was 7.1 mg/dL. The K ([…], time 28 day) was 4 meq/L, the LDH ([…], time 28 day) was 167.4 IU/L and the Na ([…], time 28 day) was 141.4 meq/L. It also gave a PL ([…], time 28 day) of 134 mg/dL, an RALB ([…], time 28 day) of 3.5 g/dL and a TBIL ([…], time 28 day) of 0.2 mg/dL. It also gave a TC ([…], time 28 day) of 72 mg/dL, a TG ([…], time 28 day) of 69.4 mg/dL and a TP ([…], time 28 day) of 6.1 g/dL. It also gave a gamma-GTP ([…], time 28 day) of 1.4 IU/L.

— ChEMBL document CHEMBL3885861, “Open TG-GATES”
